Columns and labels:
green foxtail [1] = assay: Test C postemergence herbicide test; format: in vivo, Setaria viridis
Method in brief: (§1)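 Plants were grown to the 1- to 4-leaf stage (2–18 cm) and then treated postemergence, or grown to the 2-leaf stage for the flooded paddy test. They were held in a greenhouse for 12 to 14 days and then scored by eye against controls, where 0 is no effect and 100 is complete control.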

wild oat = assay: Test C postemergence herbicide test; format: in vivo, Avenafatua
Method in brief: as §1

green foxtail [2] = assay: Test E pre-/postemergence herbicide test; format: in vivo, Setaria viridis
Method in brief: (§2)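 Ratings from 0 (no effect) to 100 (complete control) were assigned by visual comparison with untreated plants 12 to 14 days after application. Test chemicals, formulated with surfactant in a non-phytotoxic solvent blend, were applied to soil after planting or to foliage of 2–18 cm plants.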

kochia = assay: Test E pre-/postemergence herbicide test; format: in vivo, Kochia scoparia
Method in brief: as §2

purple nutsedge = assay: Test E pre-/postemergence herbicide test; format: in vivo, Cyperus rotundus
Method in brief: as §2

mustard = assay: Test E pre-/postemergence herbicide test; format: in vivo, Brassica nigra
Method in brief: as §2

guineagrass = assay: Test E pre-/postemergence herbicide test; format: in vivo, Panicum maximum
Method in brief: as §2

common sowthistle = assay: Test E pre-/postemergence herbicide test; format: in vivo, Sonchus oleraceous
Method in brief: as §2

common groundsel = assay: Test E pre-/postemergence herbicide test; format: in vivo, Senecio vulgaris
Method in brief: as §2

common chickweed = assay: Test E pre-/postemergence herbicide test; format: in vivo, Stellaria media
Method in brief: as §2

Russian thistle = assay: Test E pre-/postemergence herbicide test; format: in vivo, Salsola kali
Source text: Seeds of plant species selected from bipinnate beggarticks (Bidens bipinnata L.), hairy beggarticks (Bidens radiata Thuill.), bermudagrass (Cynodon dactylon (L.) Pers.), Surinam grass (Urochloa decumbens (Staph) R. D. Webster, previously named Brachiaria decumbens Stapf), large crabgrass (Digitaria sanguinalis (L.) Scop.), green foxtail (Setaria viridis (L.) P. Beauv.), goosegrass (Eleusine indica (L.) Gaertn.), johnsongrass (Sorghum halepense (L.) Pers.), kochia (Kochia scoparia (L.) Schrad.), pitted morningglory (Ipomoea lacunosa L.), purple nutsedge (Cyperus rotundus L.), common ragweed (Ambrosia elatior L.), mustard (Brassica nigra (L.) W. D. J. Koch), guineagrass (Panicum maximum Jacq.), dallisgrass (Paspalum dilatatum Poir.), barnyardgrass (Echinochloa crus-galli (L). P. Beauv.), southern sandbur (Cenchrus echinatus L.), common sowthistle (Sonchus oleraceous L.), prickly sida (Sida spinosa L.), Italian ryegrass (Lolium multiflorum Lam.), common purslane (Portulaca oleracea L.), broadleaf signalgrass (Brachiaria platyphylla (Griseb.) Nash), common groundsel (Senecio vulgaris L.), common chickweed (Stellaria media (L.) Vill/Cyr.), tropical spiderwort (Commelina benghalensis L.), annual bluegrass (Poa annua L.), downy bromegrass (Bromus tectorum L.), itchgrass (Rottboellia cochinchinensis (L.) L.f.), quackgrass (Elytrigia repens (L.) Nevski), Canada horseweed (Erigeron Canadensis L.), field bindweed (Convolvulus arvensis L.), spotted spurge (Euphorbia maculata L.), common mallow (Malva sylvestris (=s silvestris) L.), and Russian thistle (Salsola kali L. ssp. Ruthenica (Iljin) Soo) were planted and treated preemergence with test chemicals formulated in a non-phytotoxic solvent mixture which included a surfactant.
At the same time, plants selected from these weed species were treated with postemergence applications of some of the test chemicals formulated in the same manner. Plants ranged in height from 2 to 18 cm (1- to 4-leaf stage) for postemergence treatments. Treated plants and controls were maintained in a greenhouse for 12 to 14 days, after which time all species were compared to controls and visually evaluated. Plant response ratings, summarized in Table E, are based on a scale of 0 to 100 where 0 is no effect and 100 is complete control. A dash (-) response means no test result.

[3] = Postemergence, 500 g ai/ha, scale 0 to 100
[4] = Postemergence, 250 g ai/ha, scale 0 to 100, 0 no effect, 100 complete control
[5] = postemergence, 125 g ai/ha, scale 0 to 100
[6] = postemergence, 62 g ai/ha, scale 0 to 100
[7] = Preemergence, 62 g ai/ha, scale 0 to 100
[8] = Preemergence, 125 g ai/ha, scale 0 (no effect) to 100 (complete control)
[9] = Preemergence, 250 g ai/ha, scale 0 (no effect) to 100 (complete control)
[10] = Preemergence, 500 g ai/ha, scale 0 (no effect) to 100 (complete control)
[11] = Postemergence, 250 g ai/ha, scale 0 to 100
[12] = Preemergence, 125 g ai/ha, scale 0 to 100

## CCNC(=O)c1cccc(NC(=O)c2cc(C(C)(C)C)nn2CC)n1 [Compound 144]
Green foxtail [1]; [3]
  Foxtail, Green plant response rating: 60
Green foxtail [1]; [4]
  Plant response rating, Foxtail, Green: 60
Green foxtail [1]; [5]
  Plant response rating, Foxtail, Green: 60
Green foxtail [1]; [6]
  Plant response rating, Foxtail, Green: 40
Wild oat; [3]
  Oat, Wild plant response rating: 50
Wild oat; [4]
  Plant response rating, Oat, Wild: 50
Wild oat; [5]
  Plant response rating, Oat, Wild: 50
Wild oat; [6]
  Plant response rating, Oat, Wild: 30
Green foxtail [2]; [7]
  Plant response rating, Foxtail, Green: 10
Green foxtail [2]; [8]
  Plant response rating, Foxtail, Green: 50
Green foxtail [2]; [9]
  Plant response rating, Foxtail, Green: 80
Green foxtail [2]; [10]
  Plant response rating, Foxtail, Green: 90
kochia; [7]
  Plant response rating, Kochia: 0
kochia; [8]
  Plant response rating, Kochia: 60
kochia; [9]
  Plant response rating, Kochia: 90
kochia; [10]
  Plant response rating, Kochia: 90
Purple nutsedge; [7]
  Plant response rating, Nutsedge, Purple: 0
Purple nutsedge; [8]
  Plant response rating, Nutsedge, Purple: 30
Purple nutsedge; [9]
  Plant response rating, Nutsedge, Purple: 30
Purple nutsedge; [10]
  Plant response rating, Nutsedge, Purple: 50
mustard; [7]
  Plant response rating, Black Mustard: 20
mustard; [8]
  Plant response rating, Black Mustard: 70
mustard; [9]
  Plant response rating, Black Mustard: 75
mustard; [10]
  Plant response rating, Black Mustard: 100
guineagrass; [7]
  Plant response rating, Guineagrass: 10
guineagrass; [8]
  Plant response rating, Guineagrass: 20
guineagrass; [9]
  Plant response rating, Guineagrass: 60
guineagrass; [10]
  Plant response rating, Guineagrass: 80
Common sowthistle; [7]
  Plant response rating, Sowthistle: 10
Common sowthistle; [8]
  Plant response rating, Sowthistle: 50
Common sowthistle; [9]
  Plant response rating, Sowthistle: 90
Common sowthistle; [10]
  Plant response rating, Sowthistle: 95
Common groundsel; [7]
  Plant response rating, Groundsel: 10
Common groundsel; [8]
  Plant response rating, Groundsel: 100
Common groundsel; [9]
  Plant response rating, Groundsel: 100
Common groundsel; [10]
  Plant response rating, Groundsel: 100
Common chickweed; [7]
  Plant response rating, Chickweed: 50
Common chickweed; [8]
  Plant response rating, Chickweed: 90
Common chickweed; [9]
  Plant response rating, Chickweed: 95
Common chickweed; [10]
  Plant response rating, Chickweed: 95

## CCn1nc(C(C)(C)C)cc1C(=O)Nc1cc(C(=O)N(C)C)ccn1 [Compound 156, 2-[[[3-(1,1-dimethylethyl)-1-ethyl-1H-pyrazol-5-yl]carbonyl]amino]-N,N-dimethyl-4-pyridinecarboxamide]
Green foxtail [2]; [3]
  Plant response rating, Foxtail, Green: 100
Green foxtail [2]; [11]
  Plant response rating, Foxtail, Green: 100
Green foxtail [2]; [7]
  Plant response rating, Foxtail, Green: 100
Green foxtail [2]; [12]
  Plant response rating, Foxtail, Green: 100
Green foxtail [2]; [9]
  Plant response rating, Foxtail, Green: 100
Green foxtail [2]; [10]
  Plant response rating, Foxtail, Green: 100
Green foxtail [2]; [5]
  Plant response rating, Foxtail, Green: 95
Green foxtail [2]; [6]
  Plant response rating, Foxtail, Green: 75
kochia; [3]
  Plant response rating, Kochia: 100
kochia; [11]
  Plant response rating, Kochia: 100
kochia; [7]
  Plant response rating, Kochia: 100
kochia; [12]
  Plant response rating, Kochia: 100
kochia; [9]
  Plant response rating, Kochia: 100
kochia; [10]
  Plant response rating, Kochia: 100
kochia; [5]
  Plant response rating, Kochia: 100
Purple nutsedge; [11]
  Plant response rating, Nutsedge, Purple: 90
Purple nutsedge; [10]
  Plant response rating, Nutsedge, Purple: 95
Purple nutsedge; [5]
  Plant response rating, Nutsedge, Purple: 75
mustard; [3]
  Plant response rating, Black Mustard: 100
mustard; [11]
  Plant response rating, Black Mustard: 100
mustard; [7]
  Plant response rating, Black Mustard: 100
mustard; [12]
  Plant response rating, Black Mustard: 100
mustard; [9]
  Plant response rating, Black Mustard: 100
mustard; [10]
  Plant response rating, Black Mustard: 100
mustard; [5]
  Plant response rating, Black Mustard: 100
mustard; [6]
  Plant response rating, Black Mustard: 98
guineagrass; [3]
  Plant response rating, Guineagrass: 98
guineagrass; [11]
  Plant response rating, Guineagrass: 95
guineagrass; [7]
  Plant response rating, Guineagrass: 90
guineagrass; [12]
  Plant response rating, Guineagrass: 100
guineagrass; [9]
  Plant response rating, Guineagrass: 100
guineagrass; [10]
  Plant response rating, Guineagrass: 100
guineagrass; [5]
  Plant response rating, Guineagrass: 90
guineagrass; [6]
  Plant response rating, Guineagrass: 60
Common sowthistle; [3]
  Plant response rating, Sowthistle: 100
Common sowthistle; [11]
  Plant response rating, Sowthistle: 100
Common sowthistle; [7]
  Plant response rating, Sowthistle: 60
Common sowthistle; [12]
  Plant response rating, Sowthistle: 100
Common sowthistle; [9]
  Plant response rating, Sowthistle: 100
Common sowthistle; [10]
  Plant response rating, Sowthistle: 100
Common sowthistle; [5]
  Plant response rating, Sowthistle: 90
Common sowthistle; [6]
  Plant response rating, Sowthistle: 90
Common groundsel; [3]
  Plant response rating, Groundsel: 100
Common groundsel; [11]
  Plant response rating, Groundsel: 100
Common groundsel; [7]
  Plant response rating, Groundsel: 100
Common groundsel; [12]
  Plant response rating, Groundsel: 100
Common groundsel; [9]
  Plant response rating, Groundsel: 100
Common groundsel; [10]
  Plant response rating, Groundsel: 100
Common groundsel; [5]
  Plant response rating, Groundsel: 100
Common groundsel; [6]
  Plant response rating, Groundsel: 80
Common chickweed; [3]
  Plant response rating, Chickweed: 100
Common chickweed; [11]
  Plant response rating, Chickweed: 100
Common chickweed; [7]
  Plant response rating, Chickweed: 80
Common chickweed; [12]
  Plant response rating, Chickweed: 100
Common chickweed; [9]
  Plant response rating, Chickweed: 100
Common chickweed; [10]
  Plant response rating, Chickweed: 100
Common chickweed; [5]
  Plant response rating, Chickweed: 100
Common chickweed; [6]
  Plant response rating, Chickweed: 100
Russian thistle; [11]
  Plant response rating, Thistle: 80
Russian thistle; [7]
  Plant response rating, Thistle: 80
Russian thistle; [12]
  Plant response rating, Thistle: 100
Russian thistle; [10]
  Plant response rating, Thistle: 100
